Numbers after ± are expanded uncertainties.
What was measured:
[1] = activity coefficient (dimensionless); of the first substance listed, at infinite dilution; xn = mol fraction of the nth substance listed; conditions: 101.33 kPa, Liquid, Chromatography, x1 = 0
[2] = 101.33 kPa, Liquid, Vibrating tube method

Row | SMILES | activity coefficient ([1]; 313.15 K) | activity coefficient ([1]; 323.15 K) | activity coefficient ([1]; 333.15 K) | activity coefficient ([1]; 343.15 K) | activity coefficient ([1]; 353.15 K) | mass density ([2]; 313.15 K) | mass density ([2]; 323.15 K) | mass density ([2]; 333.15 K) | mass density ([2]; 343.15 K) | mass density ([2]; 353.15 K)
1 | Cc1ccccc1C [1,2-dimethylbenzene] + CCCCCCn1cc[n+](C)c1C.F[B-](F)(F)F | 2.38 ± 0.25 | 2.57 ± 0.27 | 2.76 ± 0.29 | 2.97 ± 0.31 | 3.16 ± 0.33 |  |  |  |  | 
2 | Cc1cccc(C)c1 [1,3-dimethylbenzene] + CCCCCCn1cc[n+](C)c1C.F[B-](F)(F)F | 3.37 ± 0.35 | 3.46 ± 0.36 | 3.59 ± 0.38 | 3.67 ± 0.39 | 3.79 ± 0.4 |  |  |  |  | 
3 | Cc1ccc(C)cc1 [1,4-dimethylbenzene] + CCCCCCn1cc[n+](C)c1C.F[B-](F)(F)F | 2.84 ± 0.3 | 3.05 ± 0.32 | 3.29 ± 0.35 | 3.51 ± 0.37 | 3.76 ± 0.4 |  |  |  |  | 
4 | C1COCCO1 [1,4-dioxane] + CCCCCCn1cc[n+](C)c1C.F[B-](F)(F)F | 1.08 ± 0.11 | 1.09 ± 0.11 | 1.1 ± 0.11 | 1.12 ± 0.11 | 1.13 ± 0.12 |  |  |  |  | 
5 | CCCCCCn1cc[n+](C)c1C.F[B-](F)(F)F [1-hexyl-2,3-dimethylimidazolium tetrafluoroborate] |  |  |  |  |  | 1129.8 ± 2.4 kg/m3 | 1123.3 ± 2.4 kg/m3 | 1116.8 ± 2.4 kg/m3 | 1110.3 ± 2.4 kg/m3 | 1103.87 ± 2.4 kg/m3
6 | CC(C)CC(C)(C)C [2,2,4-trimethylpentane] + CCCCCCn1cc[n+](C)c1C.F[B-](F)(F)F | 59.2 ± 6.2 | 59 ± 6.2 | 58.2 ± 6.1 | 57.5 ± 6.1 | 57.2 ± 6 |  |  |  |  | 
7 | CC(C)CO [2-methyl-1-propanol] + CCCCCCn1cc[n+](C)c1C.F[B-](F)(F)F | 2.28 ± 0.24 | 2.15 ± 0.23 | 2.01 ± 0.21 | 1.9 ± 0.2 | 1.85 ± 0.19 |  |  |  |  | 
8 | CC(C)=O [acetone] + CCCCCCn1cc[n+](C)c1C.F[B-](F)(F)F | 0.84 ± 0.09 | 0.87 ± 0.09 | 0.9 ± 0.09 | 0.93 ± 0.09 | 0.96 ± 0.1 |  |  |  |  | 
9 | CC#N [acetonitrile] + CCCCCCn1cc[n+](C)c1C.F[B-](F)(F)F | 0.52 ± 0.06 | 0.54 ± 0.06 | 0.56 ± 0.06 | 0.57 ± 0.06 | 0.58 ± 0.06 |  |  |  |  | 
10 | c1ccccc1 [benzene] + CCCCCCn1cc[n+](C)c1C.F[B-](F)(F)F | 1.54 ± 0.16 | 1.55 ± 0.16 | 1.57 ± 0.16 | 1.58 ± 0.16 | 1.59 ± 0.17 |  |  |  |  | 
11 | CCCCO [butan-1-ol] + CCCCCCn1cc[n+](C)c1C.F[B-](F)(F)F | 2.77 ± 0.29 | 2.67 ± 0.28 | 2.5 ± 0.3 | 2.37 ± 0.25 | 2.27 ± 0.24 |  |  |  |  | 
12 | CCC(C)O (stereo not given) [butan-2-ol] + CCCCCCn1cc[n+](C)c1C.F[B-](F)(F)F | 2.65 ± 0.28 | 2.56 ± 0.27 | 2.48 ± 0.26 | 2.38 ± 0.25 | 2.28 ± 0.24 |  |  |  |  | 
13 | C1CCCCC1 [cyclohexane] + CCCCCCn1cc[n+](C)c1C.F[B-](F)(F)F | 19.8 ± 2.1 | 19.6 ± 2.1 | 19.5 ± 2 | 19.1 ± 2 | 18.9 ± 2 |  |  |  |  | 
14 | C1=CCCCC1 [cyclohexene] + CCCCCCn1cc[n+](C)c1C.F[B-](F)(F)F | 9.89 ± 1 | 9.67 ± 1 | 9.51 ± 1 | 9.36 ± 0.98 | 9.08 ± 0.95 |  |  |  |  | 
15 | CCCCCCCCCC [decane] + CCCCCCn1cc[n+](C)c1C.F[B-](F)(F)F | 125 ± 13 | 121 ± 13 | 112 ± 12 | 102 ± 11 | 92 ± 9.7 |  |  |  |  | 
16 | ClCCl [dichloromethane] + CCCCCCn1cc[n+](C)c1C.F[B-](F)(F)F | 0.7 ± 0.07 | 0.74 ± 0.08 | 0.8 ± 0.08 | 0.87 ± 0.09 | 0.93 ± 0.09 |  |  |  |  | 
17 | CCO [ethanol] + CCCCCCn1cc[n+](C)c1C.F[B-](F)(F)F | 1.4 ± 0.14 | 1.31 ± 0.13 | 1.23 ± 0.13 | 1.16 ± 0.12 | 1.09 ± 0.11 |  |  |  |  | 
18 | CCOC(C)=O [ethyl acetate] + CCCCCCn1cc[n+](C)c1C.F[B-](F)(F)F | 2.01 ± 0.21 | 2.12 ± 0.22 | 2.16 ± 0.23 | 2.21 ± 0.23 | 2.26 ± 0.24 |  |  |  |  | 
19 | ClC(Cl)(Cl)Cl [tetrachloromethane] + CCCCCCn1cc[n+](C)c1C.F[B-](F)(F)F | 3.5 ± 0.37 | 3.61 ± 0.38 | 3.7 ± 0.4 | 3.72 ± 0.39 | 3.86 ± 0.41 |  |  |  |  | 
20 | Cc1ccccc1 [toluene] + CCCCCCn1cc[n+](C)c1C.F[B-](F)(F)F | 2.21 ± 0.23 | 2.26 ± 0.24 | 2.31 ± 0.24 | 2.35 ± 0.25 | 2.4 ± 0.25 |  |  |  |  | 

Next, values leading:

Row | activity coefficient ([1]; 313.15 K) | activity coefficient ([1]; 323.15 K) | activity coefficient ([1]; 333.15 K) | activity coefficient ([1]; 343.15 K) | activity coefficient ([1]; 353.15 K) | mass density ([2]; 313.15 K) | mass density ([2]; 323.15 K) | mass density ([2]; 333.15 K) | mass density ([2]; 343.15 K) | mass density ([2]; 353.15 K) | SMILES
21 | 3.81 ± 0.4 | 3.84 ± 0.4 | 3.88 ± 0.41 | 3.93 ± 0.41 | 3.95 ± 0.42 |  |  |  |  |  | CCc1ccccc1 [ethylbenzene] + CCCCCCn1cc[n+](C)c1C.F[B-](F)(F)F
22 | 47.9 ± 5 | 45.4 ± 4.8 | 42.8 ± 4.5 | 40.2 ± 4.2 | 37.4 ± 3.9 |  |  |  |  |  | CCCCCCC [heptane] + CCCCCCn1cc[n+](C)c1C.F[B-](F)(F)F
23 | 31 ± 3.3 | 29.5 ± 3.1 | 27.9 ± 2.9 | 26.3 ± 2.8 | 25 ± 2.6 |  |  |  |  |  | CCCCCC [hexane] + CCCCCCn1cc[n+](C)c1C.F[B-](F)(F)F
24 | 0.96 ± 0.1 | 0.91 ± 0.09 | 0.86 ± 0.09 | 0.82 ± 0.08 | 0.78 ± 0.08 |  |  |  |  |  | CO [methanol] + CCCCCCn1cc[n+](C)c1C.F[B-](F)(F)F
25 | 25.4 ± 2.7 | 25.4 ± 2.7 | 24.9 ± 2.6 | 24.5 ± 2.6 | 23.9 ± 2.5 |  |  |  |  |  | CC1CCCCC1 [methylcyclohexane] + CCCCCCn1cc[n+](C)c1C.F[B-](F)(F)F
26 | 89.5 ± 9.4 | 83.5 ± 8.8 | 77.8 ± 8.2 | 72.6 ± 7.7 | 67.4 ± 7.1 |  |  |  |  |  | CCCCCCCCC [nonane] + CCCCCCn1cc[n+](C)c1C.F[B-](F)(F)F
27 | 65.1 ± 6.8 | 64.1 ± 6.8 | 62.1 ± 6.5 | 61.2 ± 6.4 | 60.4 ± 6.4 |  |  |  |  |  | CCCCCCCC [octane] + CCCCCCn1cc[n+](C)c1C.F[B-](F)(F)F
28 | 28.9 ± 3 | 25.6 ± 2.7 | 22.9 ± 2.4 | 20.6 ± 2.2 | 18.8 ± 2 |  |  |  |  |  | CCCCC [pentane] + CCCCCCn1cc[n+](C)c1C.F[B-](F)(F)F
29 | 1.74 ± 0.18 | 1.65 ± 0.17 | 1.53 ± 0.16 | 1.43 ± 0.15 | 1.33 ± 0.14 |  |  |  |  |  | CCCO [propan-1-ol] + CCCCCCn1cc[n+](C)c1C.F[B-](F)(F)F
30 | 1.75 ± 0.18 | 1.67 ± 0.17 | 1.58 ± 0.16 | 1.46 ± 0.15 | 1.39 ± 0.14 |  |  |  |  |  | CC(C)O [propan-2-ol] + CCCCCCn1cc[n+](C)c1C.F[B-](F)(F)F
31 | 1.6 ± 0.17 | 1.62 ± 0.17 | 1.63 ± 0.17 | 1.65 ± 0.17 | 1.58 ± 0.16 |  |  |  |  |  | C1CCOC1 [tetrahydrofuran] + CCCCCCn1cc[n+](C)c1C.F[B-](F)(F)F
32 | 0.68 ± 0.07 | 0.72 ± 0.08 | 0.77 ± 0.08 | 0.82 ± 0.08 | 0.87 ± 0.09 |  |  |  |  |  | ClC(Cl)Cl [trichloromethane] + CCCCCCn1cc[n+](C)c1C.F[B-](F)(F)F

Reference: the NIST ThermoML archive (doi:10.1016/j.jct.2018.05.017)
